# Assay results from ChEMBL document CHEMBL1201862, “PubChem BioAssay data set” (2004).
#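 Growth conditions: 96-well plates. Treatment: test compound, 48 hours, 5 concentrations. Analysis: linear interpolation between bracketing concentrations; unreached endpoints set to highest concentration. Here, GI50 denotes the concentration required for 50% inhibition of growth.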 The source made the active and inactive calls. Rule as the data show it: active = GI50 up to about 1.1 µM and inactive = higher.
# What was measured:
# Assay in all cases: NCI-60 cell line screen, 48 h
# 786-0 = test system: 786-0
# A498 = test system: A498
# A549 = test system: A549
# ACHN = test system: ACHN
# CAKI-1 = test system: CAKI-1
# CCRF-CEM = test system: CCRF-CEM
# COLO 205 = test system: COLO 205
# DLD-1 = test system: DLD-1
# DMS-273 = test system: DMS-273
# EKVX = test system: EKVX
# HCT-116 = test system: HCT-116
# HCT-15 = test system: HCT-15
# HL-60 = test system: HL-60
# HOP-18 = test system: HOP-18
# HOP-62 = test system: HOP-62
# HOP-92 = test system: HOP-92
# HT-29 = test system: HT-29
# IGROV-1 = test system: IGROV-1
# K562 = test system: K562
# KM-20L2 = test system: KM-20L2
# KM12 = test system: KM12
# LOX IMVI = test system: LOX IMVI
# LXFL 529 = test system: LXFL 529
# M14 = test system: M14
# M19-MEL = test system: M19-MEL
# MOLT-4 = test system: MOLT-4
# Malme-3M = test system: Malme-3M
# NCI-H23 = test system: NCI-H23
# NCI-H460 = test system: NCI-H460
# NCI-H522 = test system: NCI-H522
# OVCAR-3 = test system: OVCAR-3
# OVCAR-4 = test system: OVCAR-4
# OVCAR-5 = test system: OVCAR-5
# OVCAR-8 = test system: OVCAR-8
# RPMI-8226 = test system: RPMI-8226
# RXF 393 = test system: RXF 393
# RXF 631 = test system: RXF 631
# SF-268 = test system: SF-268
# SF-295 = test system: SF-295
# SF-539 = test system: SF-539
# SK-MEL-28 = test system: SK-MEL-28
# SK-MEL-2 = test system: SK-MEL-2
# SK-MEL-5 = test system: SK-MEL-5
# SK-OV-3 = test system: SK-OV-3
# SN12C = test system: SN12C
# SNB-19 = test system: SNB-19
# SNB-75 = test system: SNB-75
# SNB-78 = test system: SNB-78
# SW-620 = test system: SW-620
# TK-10 = test system: TK-10
# U-251 = test system: U-251
# UACC-257 = test system: UACC-257
# UACC-62 = test system: UACC-62
# UO-31 = test system: UO-31
# XF498 = test system: XF498
# BT-549 = test system: BT-549
# DMS-114 = test system: DMS-114
# DU-145 = test system: DU-145
# HCC 2998 = test system: HCC 2998
# Hs-578T = test system: Hs-578T
# MCF7 = test system: MCF7
# MDA-MB-231 = test system: MDA-MB-231
# MDA-MB-435 = test system: MDA-MB-435
# MDA-N = test system: MDA-N
# NCI-H226 = test system: NCI-H226
# NCI/ADR-RES = test system: NCI/ADR-RES
# PC-3 = test system: PC-3
# T47D = test system: T47D
compound,measurement,setting,value
Cc1cc(C)nc(NS(=O)(=O)c2ccc(NC(=O)c3cccc4c(Nc5ccc(S(=O)(=O)Nc6nc(C)cc(C)n6)cc5)c5ccccc5nc34)cc2)n1,GI50,786-0,19.6 µM (inactive)
same,GI50,A498,18.7 µM (inactive)
same,GI50,A549,25.8 µM (inactive)
same,GI50,ACHN,23.4 µM (inactive)
same,GI50,CAKI-1,22.8 µM (inactive)
same,GI50,CCRF-CEM,22.2 µM (inactive)
same,GI50,COLO 205,22.9 µM (inactive)
same,GI50,DLD-1,19 µM (inactive)
same,GI50,DMS-273,17.9 µM (inactive)
same,GI50,EKVX,24.2 µM (inactive)
same,GI50,HCT-116,11.7 µM (inactive)
same,GI50,HCT-15,21.6 µM
same,GI50,HL-60,18.1 µM (inactive)
same,GI50,HOP-18,12.2 µM (inactive)
same,GI50,HOP-62,21 µM (inactive)
same,GI50,HOP-92,18.9 µM (inactive)
same,GI50,HT-29,20 µM (inactive)
same,GI50,IGROV-1,32.8 µM (inactive)
same,GI50,K562,19.4 µM (inactive)
same,GI50,KM-20L2,20.1 µM (inactive)
same,GI50,KM12,18.5 µM (inactive)
same,GI50,LOX IMVI,17.6 µM (inactive)
same,GI50,LXFL 529,21.3 µM (inactive)
same,GI50,M14,25.1 µM (inactive)
same,GI50,M19-MEL,29.5 µM (inactive)
same,GI50,MOLT-4,22.4 µM (inactive)
same,GI50,Malme-3M,27.6 µM (inactive)
same,GI50,NCI-H23,20.3 µM (inactive)
same,GI50,NCI-H460,32 µM (inactive)
same,GI50,NCI-H522,13.2 µM (inactive)
same,GI50,OVCAR-3,19.9 µM (inactive)
same,GI50,OVCAR-4,25.7 µM (inactive)
same,GI50,OVCAR-5,> 10 µM (inactive)
same,GI50,OVCAR-8,24.7 µM (inactive)
same,GI50,RPMI-8226,20.2 µM (inactive)
same,GI50,RXF 393,14.7 µM (inactive)
same,GI50,RXF 631,18.1 µM (inactive)
same,GI50,SF-268,12.9 µM (inactive)
same,GI50,SF-295,21.4 µM (inactive)
same,GI50,SF-539,15.4 µM (inactive)
same,GI50,SK-MEL-28,14.6 µM (inactive)
same,GI50,SK-MEL-2,34 µM (inactive)
same,GI50,SK-MEL-5,16.6 µM (inactive)
same,GI50,SK-OV-3,26 µM (inactive)
same,GI50,SN12C,14.3 µM (inactive)
same,GI50,SNB-19,10.2 µM (inactive)
same,GI50,SNB-75,3.44 µM (inactive)
same,GI50,SNB-78,39.6 µM (inactive)
same,GI50,SW-620,28.1 µM (inactive)
same,GI50,TK-10,27.2 µM (inactive)
same,GI50,U-251,16.4 µM (inactive)
same,GI50,UACC-257,23 µM (inactive)
same,GI50,UACC-62,19.1 µM (inactive)
same,GI50,UO-31,17.7 µM (inactive)
same,GI50,XF498,33.6 µM (inactive)
CC(C(=O)O)/C(=C\c1ccc2c(c1)OCO2)C(=O)O (stereo unspecified),GI50,786-0,> 100 µM (inactive)
same,GI50,A498,> 100 µM (inactive)
same,GI50,A549,> 100 µM (inactive)
same,GI50,ACHN,> 100 µM (inactive)
same,GI50,BT-549,> 100 µM (inactive)
same,GI50,CAKI-1,> 100 µM (inactive)
same,GI50,COLO 205,> 100 µM (inactive)
same,GI50,DLD-1,> 100 µM (inactive)
same,GI50,DMS-114,> 100 µM (inactive)
same,GI50,DMS-273,> 100 µM (inactive)
same,GI50,DU-145,> 100 µM (inactive)
same,GI50,EKVX,> 53.6 µM (inactive)
same,GI50,HCC 2998,> 100 µM (inactive)
same,GI50,HCT-116,> 100 µM (inactive)
same,GI50,HCT-15,> 100 µM
same,GI50,HL-60,0.0226 µM (active)
same,GI50,HOP-18,> 100 µM (inactive)
same,GI50,HOP-62,> 100 µM (inactive)
same,GI50,HOP-92,> 100 µM (inactive)
same,GI50,HT-29,> 61.5 µM (inactive)
same,GI50,Hs-578T,> 100 µM (inactive)
same,GI50,IGROV-1,> 100 µM (inactive)
same,GI50,K562,> 92.5 µM (inactive)
same,GI50,KM-20L2,> 100 µM (inactive)
same,GI50,KM12,> 100 µM (inactive)
same,GI50,LOX IMVI,> 100 µM (inactive)
same,GI50,LXFL 529,> 100 µM (inactive)
same,GI50,M14,> 100 µM (inactive)
same,GI50,M19-MEL,> 100 µM (inactive)
same,GI50,MCF7,> 100 µM (inactive)
same,GI50,MDA-MB-231,> 100 µM (inactive)
same,GI50,MDA-MB-435,> 100 µM (inactive)
same,GI50,MDA-N,> 100 µM (inactive)
same,GI50,MOLT-4,> 6.89 µM (inactive)
same,GI50,Malme-3M,> 100 µM (inactive)
same,GI50,NCI-H226,> 77.6 µM (inactive)
same,GI50,NCI-H23,> 100 µM (inactive)
same,GI50,NCI-H460,> 100 µM (inactive)
same,GI50,NCI-H522,> 100 µM (inactive)
same,GI50,NCI/ADR-RES,> 100 µM (inactive)
same,GI50,OVCAR-3,> 100 µM (inactive)
same,GI50,OVCAR-4,> 100 µM (inactive)
same,GI50,OVCAR-5,> 10 µM (inactive)
same,GI50,OVCAR-8,> 100 µM (inactive)
same,GI50,PC-3,> 100 µM (inactive)
same,GI50,RPMI-8226,> 100 µM (inactive)
same,GI50,RXF 393,> 100 µM (inactive)
same,GI50,RXF 631,> 100 µM (inactive)
same,GI50,SF-268,> 100 µM (inactive)
same,GI50,SF-295,> 100 µM (inactive)
same,GI50,SF-539,> 100 µM (inactive)
same,GI50,SK-MEL-28,> 100 µM (inactive)
same,GI50,SK-MEL-2,> 100 µM (inactive)
same,GI50,SK-MEL-5,> 100 µM (inactive)
same,GI50,SK-OV-3,> 100 µM (inactive)
same,GI50,SN12C,> 100 µM (inactive)
same,GI50,SNB-19,> 100 µM (inactive)
same,GI50,SNB-75,> 100 µM (inactive)
same,GI50,SW-620,> 100 µM (inactive)
same,GI50,T47D,> 100 µM (inactive)
same,GI50,TK-10,> 100 µM (inactive)
same,GI50,U-251,> 100 µM (inactive)
same,GI50,UACC-257,> 100 µM (inactive)
same,GI50,UACC-62,> 100 µM (inactive)
same,GI50,UO-31,> 100 µM (inactive)
same,GI50,XF498,> 100 µM (inactive)
